{
  "source": "patent US20140349989A1",
  "about": "“COMPOUNDS AND THERAPEUTIC USES THEREOF” (Alzheimer's Institute of America, priority 2011, published 2014)",
  "key": {"Human NAMPT": {"molecular_target": "T1, Human NAMPT (Homo sapiens, UniProt P43490)", "T1 construct": "6xHis (N); made in house; host or cells: E. coli BL21-AI", "T1 sequence (P43490 whole entry)": "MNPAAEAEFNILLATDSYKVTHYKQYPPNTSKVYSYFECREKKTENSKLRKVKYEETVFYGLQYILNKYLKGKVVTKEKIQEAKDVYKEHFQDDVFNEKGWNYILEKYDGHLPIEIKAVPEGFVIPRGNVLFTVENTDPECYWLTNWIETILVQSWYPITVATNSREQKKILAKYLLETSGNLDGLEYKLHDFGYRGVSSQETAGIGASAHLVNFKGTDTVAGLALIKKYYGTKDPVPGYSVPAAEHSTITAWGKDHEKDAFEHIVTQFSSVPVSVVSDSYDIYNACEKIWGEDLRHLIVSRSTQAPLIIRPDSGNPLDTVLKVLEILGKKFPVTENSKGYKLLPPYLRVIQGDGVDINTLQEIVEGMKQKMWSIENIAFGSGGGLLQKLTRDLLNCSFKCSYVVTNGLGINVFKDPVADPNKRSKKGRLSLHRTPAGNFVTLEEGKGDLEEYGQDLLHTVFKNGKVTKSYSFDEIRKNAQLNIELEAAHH", "test": "Nampt Activity Assay (coupled enzyme fluorometric, resazurin/diaphorase)", "format": "biochemical", "settings": "His-tagged human NAMPT, 3 μM NAM, 8 μM PRPP, room temperature up to 3 hours; read-out: in vitro IC50 (Nampt catalytic activity)", "description": "5-phosphoribosyl-1-pyrophosphate (PRPP), ATP, NaM, NaMN, Triton X-100, UDP-glucose and diaphorase were purchased from Sigma-Aldrich, St. Louis, Mo. Human NAMPT, NMN adenylyltransferase (NMNAT1) and UDP-glucose dehydrogenase (UGDH) encoding DNAs were each inserted into a house-modified E. Coli expression vector such that the expressed proteins carried an N-terminal 6×His tag. The His-tagged proteins were expressed in the BL21-AI E. Coli expression strain (Invitrogen Corporation, Carlsbad, Calif.) following induction by 0.2% L-arabinose and 0.5 mM IPTG at 30° C. Proteins were purified on Ni-NTA resin (Qiagen, Germantown, Md.).\nThe assay for Nampt catalytic activity was constructed based on a previously published coupled enzyme fluorometric technique, which employs NADH as ultimate analyte (Revollo, J. R. et al. Biol. Chem. 279, 50754-50763 (2004)). A substantial improvement in assay sensitivity was achieved by switching from direct detection to a resazurin/diaphorase-based fluorometric detection system for NADH (Guilbault, G. G., and Kramer, D. N. Anal. Chem. 37, 1219-1221 (1965)). The standard inhibition analyses were performed in a real-time mode in 96-well microtiter plates using 50 mM Tris-HCl, pH 7.5, 1% DMSO (v/v), 0.01% Triton X-100 (v/v), 10 mM MgCl2, 2 mM ATP, 3 μM NAM, 8 μM PRPP, […], as well as the following detection reagents: 5 nM Nmnat, 200 nM Ugdh, 200 μM UDP-glucose, 0.02 U/mL diaphorase and 0.25 μM resazurin. Incubation of samples at room temperature for up to 3 hours was followed by quantification of fluorescence intensities at excitation and emission wavelengths of 510 nm and 590 nm, respectively, using Gemini XS plate reader (Molecular Devices, Sunnyvale, Calif.). The counter-assay intended to disqualify false positives, such as inhibitors of detection enzymes or fluorescence quenchers, was carried out essentially as described above with an exception that 1 μM NaMN was substituted for Nampt."}, "[1]": {"test": "Cytotoxicity Assay (HCT116, CellTiter-Glo)", "format": "cell-based", "settings": "human", "procedure,_shortened": "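Cells settled overnight, then exposed to compound in DMSO for 72 h, optionally with nicotinic acid (10 μM final) added alongside. Viability read as CellTiter-Glo luminescence.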"}, "[2]": {"settings": "HCT116 cells, 72 hours drug incubation, CellTiter-Glo luminescence, read-out: HCT116 cell cytotoxicity IC50"}},
  "note": "Like-named read-outs stand apart in the source and are kept apart here.",
  "data": [
    {"smiles": "O=C(NCc1cccnc1)Nc1ccc(-n2ccc(C(=O)NCCN3CCCC3)n2)cc1", "note": "[Compound 1, 1-(4-{[(Pyridin-3-ylmethyl)carbamoyl]amino}phenyl)-N-[2-(pyrrolidin-1-yl)ethyl]-1H-pyrazole-3-carboxamide]", "values": [
      {"measurement": "IC50", "setting": "Human NAMPT", "value": "~10", "unit": "nM"}
    ]},
    {"smiles": "O=C(NCc1cccnc1)Nc1ccc(-n2cc(C(=O)NCCCN3CCCC3)c3ccccc32)cc1", "note": "[Compound 4]", "values": [
      {"measurement": "IC50 at 72 h", "setting": "[1]; HCT116 cell cytotoxicity IC50", "value": "~8", "unit": "nM"},
      {"measurement": "IC50", "setting": "Human NAMPT", "value": "~1", "unit": "nM"}
    ]},
    {"smiles": "O=C(NCc1cccnc1)Nc1ccc(-n2nc(C(=O)NCCN3CCCC3)c3ccccc32)cc1", "note": "[Compound 6, 1-(4-{[(Pyridin-3-ylmethyl)carbamoyl]amino}phenyl)-N-[2-(pyrrolidin-1-yl)ethyl]-1H-indazole-3-carboxamide]", "values": [
      {"measurement": "IC50 at 72 h", "setting": "[1]; HCT116 cell cytotoxicity IC50", "value": "~18", "unit": "nM"},
      {"measurement": "IC50", "setting": "Human NAMPT", "value": "~2", "unit": "nM"}
    ]},
    {"smiles": "O=C(NCc1cccnc1)Nc1ccc(-n2cc(C(=O)N3CC(N4CCNCC4)C3)c3ccccc32)cc1", "note": "[Compound 15, 1-[4-(3-{[3-(Piperazin-1-yl)azetidin-1-yl]carbonyl}-1H-indol-1-yl)phenyl]-3-(pyridin-3-ylmethyl)urea]", "values": [
      {"measurement": "IC50 at 72 h", "setting": "[1]; HCT116 cell cytotoxicity IC50", "value": "~60", "unit": "nM"},
      {"measurement": "IC50", "setting": "Human NAMPT", "value": "~1", "unit": "nM"}
    ]},
    {"smiles": "O=C(NCc1cccnc1)Nc1ccc(-n2cc(C(=O)N3CCC(N4CCOCC4)CC3)c3cccnc32)cc1", "note": "[Compound 27, 1-[4-[3-(4-morpholinopiperidine-1-carbonyl)pyrrolo[2,3-b]pyridin-1-yl]phenyl]-3-(3-pyridylmethyl)urea]", "values": [
      {"measurement": "IC50 at 72 h", "setting": "[1]; HCT116 cell cytotoxicity IC50", "value": "~4", "unit": "nM"},
      {"measurement": "IC50", "setting": "Human NAMPT", "value": "~1", "unit": "nM"}
    ]},
    {"smiles": "O=C(NCc1cccnc1)Nc1ccc(-n2cc(C3CCNCC3)c3ccccc32)cc1", "note": "[Compound 29, 1-[4-[3-(4-piperidyl)indol-1-yl]phenyl]-3-(3-pyridylmethyl)urea]", "values": [
      {"measurement": "IC50", "setting": "Human NAMPT", "value": "~1", "unit": "nM"}
    ]},
    {"smiles": "O=C(NCc1cccnc1)Nc1ccc(-c2nn(C3CN(C4CCCC4)C3)c3ccccc23)cc1", "note": "[Compound 33, 1-{4-[1-(1-Cyclopentyl-azetidin-3-yl)-1H-indazol-3-yl]phenyl}-3-(pyridin-3-ylmethyl)urea]", "values": [
      {"measurement": "IC50 at 72 h", "setting": "[1]; HCT116 cell cytotoxicity IC50", "value": "~1", "unit": "nM"},
      {"measurement": "IC50 at 72 h", "setting": "[1]; [2]", "value": "< 100", "unit": "nM"},
      {"measurement": "IC50", "setting": "Human NAMPT", "value": "< 1", "unit": "nM"}
    ]},
    {"smiles": "CC(C(=O)N(C)C)N1CCC2(CC1)CN(c1ccc(NC(=O)NCc3cccnc3)cc1)c1ccccc12", "note": "(stereo not shown) [Compound 47, N,N-Dimethyl-2-[1-(4-{[(pyridin-3-ylmethyl)carbamoyl]ami-no}phenyl)-1,2-dihydro-1′H-spiro[indole-3,4′-piperidin]-1′-yl]propanamide]", "values": [
      {"measurement": "IC50 at 72 h", "setting": "[1]; HCT116 cell cytotoxicity IC50", "value": "< 1", "unit": "nM"},
      {"measurement": "IC50 at 72 h", "setting": "[1]; [2]", "value": "< 100", "unit": "nM"},
      {"measurement": "IC50", "setting": "Human NAMPT", "value": "< 1", "unit": "nM"}
    ]},
    {"smiles": "CC(C)N1CCC2(CC1)CN(c1ccc(NC(=O)NCc3cccnc3)cc1)c1ccccc12", "note": "[Compound 61, 1-{4-[1′-(Propan-2-yl)spiro[indole-3,4′-piperidin]-1(2H)-yl]phenyl}-3-(pyridin-3-ylmethyl)urea]", "values": [
      {"measurement": "IC50", "setting": "Human NAMPT", "value": "< 1", "unit": "nM"}
    ]},
    {"smiles": "O=C(NCc1cccnc1)Nc1ccc(-n2cc(CCN3CCCC3)c3ccccc32)cc1", "note": "[Compound 78, 1-(Pyridin-3-ylmethyl)-3-(4-{3-[2-(pyrrolidin-1-yl)ethyl]-1H-indol-1-yl}phenyl)urea]", "values": [
      {"measurement": "IC50 at 72 h", "setting": "[1]; HCT116 cell cytotoxicity IC50", "value": "~1", "unit": "nM"},
      {"measurement": "IC50 at 72 h", "setting": "[1]; [2]", "value": "< 100", "unit": "nM"},
      {"measurement": "IC50", "setting": "Human NAMPT", "value": "~1", "unit": "nM"}
    ]},
    {"smiles": "O=C(NCc1cccnc1)Nc1ccc(-n2nc(N3CCN(C4CCCC4)CC3)c3ccccc32)cc1", "note": "[Compound 109, 1-{4-[3-(4-Cyclopentyl-piperazin-1-yl)-1H-indazol-1-yl]phenyl}-3-(pyridin-3-ylmethyl)urea]", "values": [
      {"measurement": "IC50 at 72 h", "setting": "[1]; HCT116 cell cytotoxicity IC50", "value": "~1", "unit": "nM"},
      {"measurement": "IC50 at 72 h", "setting": "[1]; [2]", "value": "< 100", "unit": "nM"},
      {"measurement": "IC50", "setting": "Human NAMPT", "value": "~1", "unit": "nM"}
    ]},
    {"smiles": "Cc1c(-c2ccccc2)c(C(=O)O)nn1-c1ccc(NC(=O)NCc2cccnc2)cc1", "note": "[Compound 119, 5-Methyl-4-phenyl-1-(4-{[(pyridin-3-ylmethyl)carbamoyl]amino}phenyl)-1H-pyrazole-3-carboxylic acid]", "values": [
      {"measurement": "IC50", "setting": "Human NAMPT", "value": "~2", "unit": "nM"}
    ]},
    {"smiles": "O=C(/C=C/c1ccc(-n2nc(C(=O)N3CC(N4CCOCC4)C3)c3ccccc32)cc1)NCc1cccnc1", "note": "[Compound 169, (2E)-3-[4-(3-{[3-(Morpholin-4-yl)azetidin-1-yl]carbonyl}-1H-indazol-1-yl)phenyl]-N-(pyridin-3-ylmethyl)prop-2-enamide]", "values": [
      {"measurement": "IC50 at 72 h", "setting": "[1]; HCT116 cell cytotoxicity IC50", "value": "~10", "unit": "nM"},
      {"measurement": "IC50 at 72 h", "setting": "[1]; [2]", "value": "< 100", "unit": "nM"},
      {"measurement": "IC50", "setting": "Human NAMPT", "value": "~3", "unit": "nM"}
    ]},
    {"smiles": "O=C(/C=C/c1ccc(-n2cc(CCN3CCOCC3)c3ccccc32)cc1)NCc1cccnc1", "note": "[Compound 175, (2E)-3-(4-{3-[2-(Morpholin-4-yl)ethyl]-1H-indol-1-yl}phenyl)-N-(pyridin-3-ylmethyl)prop-2-enamide]", "values": [
      {"measurement": "IC50 at 72 h", "setting": "[1]; HCT116 cell cytotoxicity IC50", "value": "~7", "unit": "nM"},
      {"measurement": "IC50 at 72 h", "setting": "[1]; [2]", "value": "< 100", "unit": "nM"},
      {"measurement": "IC50", "setting": "Human NAMPT", "value": "~1", "unit": "nM"}
    ]},
    {"smiles": "O=C(Cc1ccc(-n2nc(C(=O)N3CCC(N4CCCCC4)CC3)c3ccccc32)cc1)NCc1cccnc1", "note": "[Compound 183, 2-{4-[3-(1,4′-Bipiperidin-1′-ylcarbonyl)-1H-indazol-1-yl]phenyl}-N-(pyridin-3-ylmethyl)acetamide]", "values": [
      {"measurement": "IC50 at 72 h", "setting": "[1]; [2]", "value": "< 100", "unit": "nM"}
    ]}
  ]
}
